Data as given in patent US9206159B2, “Piperazine-piperidine compounds as hepatitis C virus inhibitors” (Theravance Biopharma R&D IP, LLC, priority 2012, dated 2015).

Legend:
[1] = test system: HCV genotype 1a replicon cell line; assay: HCV Genotype 1a Replicon Assay; type: cell-based, hepatitis C virus; conditions: Huh7.5 cell background, NS3-specific protease activity in lysates, 48 or 72 hours; for EC50: Hepatitis C virus, read-out: Genotype 1a (pEC50 class) (converted)
Procedure, shortened: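 Huh7.5-based subgenomic genotype 1a replicon cells, plated without G418, exposed to compound dose-responses (0.5% DMSO final) for 48 or 72 h at 37 °C. Lysate NS3/4a protease activity read with 15 μM FRET substrate, 20 min at 37 °C (Ex 340/Em 509 nm); EC50 from 4-parameter fit.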

[2] = test system: HCV genotype 1b replicon cell line; assay: HCV Genotype 1b Replicon Assay; type: cell-based, hepatitis C virus; conditions: Renilla luciferase readout, 48 hours; for Genotype 1b (pEC50 class): Huh7 cell background; for EC50: Hepatitis C virus, Huh-7, Huh7 cell background, read-out: Genotype 1b (pEC50 class) (converted)
Description: Assay 1: HCV Genotype 1b Replicon Assay
The HCV genotype 1b replicon cell line was obtained from Apath LLC (Brooklyn, N.Y.) (APC144; Huh7 cell background). This subgenomic replicon contains the N-terminus of the HCV core protein fused to the neomycin-resistance selectable marker. The EMCV IRES lies downstream and drives expression of humanized Renilla luciferase fused to the non-structural proteins NS3-NS5B. This cell line was used to determine compound potency using the luciferase activity readout as a measurement of compound inhibition of replicon levels.
Cells were grown at 37° C. in a 5% CO2 humidified incubator in DMEM (Invitrogen) with 10% FBS (HyClone), 1×NEAA (Invitrogen), 1× Pen-Strep (Invitrogen), and 500 μg/mL G418 (Invitrogen). On day 1 of the assay, cells were plated at 10,000 cells/well in white 96-well tissue culture plates (Costar) in 200 μL media lacking G418. Four hours later, once the cells have adhered, the media was removed and replaced with media (no G418) containing dose-responses of test compounds. Compounds were initially diluted in DMSO and then diluted another 200× in media to bring the final DMSO concentration down to 0.5%. The cells were incubated with test compounds for 48 hours. At the end of the incubation period, media and compound were removed from the plates and the luciferase activity was determined using Promega Renilla-Glo reagents.
To analyze the data, the luciferase activity was plotted vs. the compound concentration, and EC50 values were determined from a 4-parameter robust fit model with the GraphPad Prism software package (GraphPad Software, Inc., San Diego, Calif.). Results are expressed as the negative decadic logarithm of the EC50 value, pEC50.
Test compounds having a higher pEC50 value in this assay show greater inhibition of HCV genotype 1b replication.

| SMILES | Genotype 1a (pEC50 class) [1] | Genotype 1b (pEC50 class) [2] | EC50 [1] [pM] | EC50 [2] [pM] |
| --- | --- | --- | --- | --- |
| COC(=O)N[C@H](C(=O)N1CCC[C@H]1c1nc(-c2ccc(-c3ccc(NC(=O)N4CCN(C5CCN(C(=O)OC(C)(C)C)CC5)CC4)cc3OC(F)(F)F)cc2)c[nH]1)C(C)C [Example 1-14] | C (C represents pEC50 between and 9 and about 10, (EC50 between 1 nM and 0.1 nM)) | D (D represents pEC50>10 (EC50<0.1 nM)) | – | – |
| COC(=O)N[C@H](C(=O)N1CCC[C@H]1c1nc(-c2ccc(-c3ccc(NC(=O)N4CCN(C5CCN(C(=O)C(C)(C)CO)CC5)CC4)cc3OC(F)(F)F)cc2)c[nH]1)C(C)C [Example 1-17] | C (C represents pEC50 between and 9 and about 10, (EC50 between 1 nM and 0.1 nM)) | D (D represents pEC50>10 (EC50<0.1 nM)) | – | – |
| COC(=O)N[C@H](C(=O)N1C[C@@H](C)C[C@H]1c1nc(-c2ccc(-c3cc(F)c(NC(=O)N4CCN(C5CCN(C(=O)C(C)(C)C)CC5)CC4)cc3OC(F)(F)F)cc2)c[nH]1)C(C)C [Example 2-5] | D (D represents pEC50>10 (EC50<0.1 nM)) | D (D represents pEC50>10 (EC50<0.1 nM)) | – | – |
| COC(=O)N[C@H](C(=O)N1C[C@@H](C)C[C@H]1c1nc(-c2ccc(-c3ccc(NC(=O)N4CCN(C5CCN(C(=O)C(C)(C)C)CC5)CC4)cc3OC(F)(F)F)cc2)c[nH]1)C(C)C [Example 2-9] | D (D represents pEC50>10 (EC50<0.1 nM)) | D (D represents pEC50>10 (EC50<0.1 nM)) | – | – |
| COC(=O)N[C@H](C(=O)N1C[C@@H](C)C[C@H]1c1nc(-c2ccc(-c3cc(F)c(NC(=O)N4CCN(C5CCN(C(=O)[C@H]6CC6(C)C)CC5)CC4)cc3OC(F)(F)F)cc2)c[nH]1)C(C)C [Example 2-16] | D (D represents pEC50>10 (EC50<0.1 nM)) | D (D represents pEC50>10 (EC50<0.1 nM)) | – | – |
| COC(=O)N[C@H](C(=O)N1C[C@@H](C)C[C@H]1c1nc(-c2ccc(-c3ccc(NC(=O)N4CCN(C5CCN(C(=O)[C@H]6CC6(C)C)CC5)CC4)cc3OC(F)(F)F)cc2)c(Cl)[nH]1)C(C)C [Example 2-17] | D (D represents pEC50>10 (EC50<0.1 nM)) | D (D represents pEC50>10 (EC50<0.1 nM)) | – | – |
| COC(=O)N[C@H](C(=O)N1C[C@@H](C)C[C@H]1c1nc(-c2ccc(-c3ccc(NC(=O)N4CCN(C5CCN(C(=O)C6CCC6)CC5)CC4)cc3OC(F)(F)F)cc2)c[nH]1)C(C)C [Example 2-19] | C (C represents pEC50 between and 9 and about 10, (EC50 between 1 nM and 0.1 nM)) | D (D represents pEC50>10 (EC50<0.1 nM)) | – | – |
| [2H]C([2H])([2H])C1(C([2H])([2H])[2H])CC1C(=O)N1CCC(N2CCN(C(=O)Nc3ccc(-c4ccc(-c5c[nH]c([C@@H]6C[C@H](C)CN6C(=O)[C@@H](NC(=O)OC)C(C)C)n5)cc4)c(OC(F)(F)F)c3)CC2)CC1 (some centres unmarked) [Example 2-20] | D (D represents pEC50>10 (EC50<0.1 nM)) | D (D represents pEC50>10 (EC50<0.1 nM)) | – | – |
| COC(=O)N[C@H](C(=O)N1C[C@@H](C)C[C@H]1c1nc(-c2ccc(-c3ccc(NC(=O)N4CCN(C5CCN(C(=O)OC(C)(C)C)CC5)CC4)cc3OC(F)(F)F)cc2)c[nH]1)C(C)C [Example 2-21] | D (D represents pEC50>10 (EC50<0.1 nM)) | D (D represents pEC50>10 (EC50<0.1 nM)) | – | – |
| COC(=O)N[C@H](C(=O)N1CCC[C@H]1c1nc(-c2ccc(-c3ccc(NC(=O)N4CCC(N5CCN(C(=O)[C@H]6CC6(C)C)CC5)CC4)cc3)cc2)c[nH]1)C(C)C [Example 3-2] | B (B represents pEC50 between 8 and 9 (EC50 between 1 and 10 nM)) | D (D represents pEC50>10 (EC50<0.1 nM)) | – | – |
| COC(=O)N[C@H](C(=O)N1C[C@@H](C)C[C@H]1c1nc2c(ccc3cc(-c4ccc(NC(=O)N5CCN(C6CCN(C(=O)[C@H]7CC7(C)C)CC6)CC5)cc4OC(F)(F)F)ccc32)[nH]1)C(C)C [Example 6-1] | D (D represents pEC50>10 (EC50<0.1 nM)) | D (D represents pEC50>10 (EC50<0.1 nM)) | – | – |
| COC(=O)N[C@H](C(=O)N1C[C@@H](C)C[C@H]1c1nc2c(ccc3cc(-c4ccc(NC(=O)N5CCN(C6CCN(C(=O)C(C)(C)CO)CC6)CC5)cc4OC(F)(F)F)ccc32)[nH]1)C(C)C [Example 6-4] | – | – | < 100 | < 100 |
| COC(=O)N[C@H](C(=O)N1C[C@@H](C)C[C@H]1c1nc(-c2ccc(-c3ccc(NC(=O)N4CCN(C5CCN(C(=O)C(C)(C)C)CC5)CC4)cc3OC(F)(F)F)cc2)c(Cl)[nH]1)C(C)C [Example 7, [(S)-1-((2S,4S)-2-{5-Chloro-4-[4′-({4-[1-(2,2-dimethyl-propionyl)-piperidin-4-yl]-piperazine-1-carbonyl}-amino)-2′-trifluoromethoxy-biphenyl-4-yl]-1H-imidazol-2-yl}-4-methyl-pyrrolidine-1-carbonyl)-2-methyl-propyl]-carbamic acid methyl ester] | – | – | < 100 | < 100 |
| COC(=O)N[C@H](C(=O)N1C[C@@H](C)C[C@H]1c1nc(-c2ccc(-c3ccc(NC(=O)N4CCC(N5CCN(C(=O)C(C)(C)CO)CC5)CC4)cc3OC(F)(F)F)cc2)c[nH]1)C1CCOCC1 [Example 9-1] | C (C represents pEC50 between and 9 and about 10, (EC50 between 1 nM and 0.1 nM)) | D (D represents pEC50>10 (EC50<0.1 nM)) | – | – |
| COC(=O)N[C@H](C(=O)N1C[C@@H](C)C[C@H]1c1nc(-c2ccc(-c3ccc(NC(=O)N4CCC(N5CCN(C(=O)C(C)(C)C)CC5)CC4)cc3OC(F)(F)F)cc2)c(F)[nH]1)C1CCOCC1 [Example 9-2] | – | – | < 100 | < 100 |
| COC(=O)N[C@H](C(=O)N1C[C@@H](C)C[C@H]1c1nc(-c2ccc(-c3ccc(NC(=O)N4CCC(N5CCN(C(=O)C(C)(C)CO)CC5)CC4)cc3OC(F)(F)F)cc2)c(F)[nH]1)C1CCOCC1 [Example 9-3] | – | – | 100 to 1000 | < 100 |
| COC(=O)N[C@H](C(=O)N1C[C@@H](C)C[C@H]1c1nc(-c2ccc(-c3cc(Cl)c(NC(=O)N4CCC(N5CCN(C(=O)[C@H]6CC6(C)C)C[C@@H]5C)CC4)cc3OC(F)(F)F)cc2)c[nH]1)C(C)C [Example 11, ((S)-1-{(2S,4S)-2-[4-(5′-Chloro-4′-{[4-((S)-4-dimethylcyclopropane-carbonyl-2-methyl-piperazin-1-yl)-piperidine-1-carbonyl]-amino}-2′-trifluoromethoxy-biphenyl-4-yl)-1H-imidazol-2-yl]-4-methyl-pyrrolidine-1-carbonyl}-2-methyl-propyl)-carbamic acid methyl ester] | – | – | < 100 | < 100 |
| COC(=O)N[C@H](C(=O)N1C[C@@H](C)C[C@H]1c1nc2c(ccc3cc(-c4ccc(NC(=O)N5CCN(C6CCN(C(=O)C7CC7)CC6)CC5)cc4OC(F)(F)F)ccc32)[nH]1)C(C)C [Example 16, ((S)-1-{(2S,4S)-2-[7-(4-{[4-(1-Cyclopropanecarbonyl-piperidin-4-yl)-piperazine-1-carbonyl]-amino}-2-trifluoromethoxy-phenyl)-3H-naphth[1,2-d]imidazol-2-yl]-4-methyl-pyrrolidine-1-carbonyl}-2-methyl-propyl)-carbamic acid methyl ester] | – | – | < 100 | < 100 |
| COC(=O)N[C@H](C(=O)N1C[C@@H](C)C[C@H]1c1nc(-c2ccc(-c3ccc(NC(=O)N4CCC(N5CCN(C(=O)C(C)(C)C)CC5)CC4)cc3OC(F)(F)F)cc2)c[nH]1)C1CCOCC1 [Example 17, [(S)-2-((2S,4S)-2-{4-[4′-({4-[4-(2,2-Dimethyl-propionyl)-piperazin-1-yl]-piperidine-1-carbonyl}-amino)-2′-trifluoromethoxy-biphenyl-4-yl]-1H-imidazol-2-yl}-4-methyl-pyrrolidin-1-yl)-2-oxo-1-(tetrahydro-pyran-4-yl)-ethyl]-carbamic acid methyl ester] | – | – | 100 to 1000 | < 100 |
